Converted amounts (≈) assume the structure as drawn. Read-outs that look alike come from different tables or passages of the source.

A word on the IC50: it is the point on the concentration scale where inhibition reaches its midpoint.

The conditions of data set [1]: rats, ref Ma et al. 2016, cited from earlier work.
In the next data set the target is T1, OAT1 (Homo sapiens, UniProt Q4U2R8).
T1 construct: host or cells: MDCK
T1 sequence (Q4U2R8 1-563): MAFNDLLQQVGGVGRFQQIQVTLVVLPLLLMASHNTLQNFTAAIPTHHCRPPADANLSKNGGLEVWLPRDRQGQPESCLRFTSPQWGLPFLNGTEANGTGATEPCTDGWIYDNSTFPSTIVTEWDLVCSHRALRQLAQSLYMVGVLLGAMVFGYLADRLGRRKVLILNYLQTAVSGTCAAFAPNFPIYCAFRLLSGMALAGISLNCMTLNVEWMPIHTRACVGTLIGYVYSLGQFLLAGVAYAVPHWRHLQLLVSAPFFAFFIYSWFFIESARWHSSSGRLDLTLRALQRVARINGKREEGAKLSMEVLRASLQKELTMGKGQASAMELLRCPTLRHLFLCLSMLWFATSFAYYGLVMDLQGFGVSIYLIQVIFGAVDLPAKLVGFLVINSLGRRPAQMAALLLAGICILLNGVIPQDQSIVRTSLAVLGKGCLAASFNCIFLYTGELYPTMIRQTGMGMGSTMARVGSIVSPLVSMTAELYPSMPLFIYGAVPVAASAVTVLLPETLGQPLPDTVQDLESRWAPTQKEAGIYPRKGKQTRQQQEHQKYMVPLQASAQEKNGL
The data set is described as follows: Inhibition of OAT1-mediated 14C-PAH uptake in MDCK-OAT1 cells. Type of data set: cell-based. The method, then:
Cells were cultured in DMEM supplemented with 10% FBS, 100 units/mL penicillin and 100 units/mL streptomycin. […] Cell culture flasks, 24-well cell culture plates, and transwell polycarbonate inserts (12 mm diameter, 0.4 μm pore size) were purchased from Corning Co-star Corp. (Bedford, MA).
The MDCK-OAT1, S2-OAT3, S2-OCT2 and HEK293-OATP1B1 cell lines were utilized in this study. […] Briefly, S2-OAT3, S2-OCT2 and S2-mock cells were trypsinized and uniformly suspended in the culture medium’s designated volume to provide a density of 2.0 × 10^5 cells/mL. A 1.0-mL aliquot of the cell suspension was added into each well of 24-well insert plates. HEK293-OATP1B1, MDCK-OAT1 and their mock cells were seeded in 24-well plates at a density of 1.5 × 10^5 cells/well. […] Three washes terminated the experiment with ice-cold DPBS buffer after removing the incubation buffer. Cells were lysed with 400 μL of […] sodium hydroxide solution. The cell lysate and 3.0 mL of aquasol-2 scintillation fluid were put into a scintillation flask. […] The final concentration of DMSO in the assay was less than 0.1%. All experiments were performed in triplicate.

Data set [2] in a line: Urinary excretion of GA and PCA after oral RLQ in healthy subjects. Format: in vivo, human. Conditions: for fraction unbound / dose excreted: human, urine, oral, 8 g; for fraction unbound: urine within 24 h, read-out: Fu (fraction of administered dose excreted in the urine); for dose excreted: abstract summary, read-out: 24 h urine recovery rate. The method, then: In the single-dose study, 8 g of RLQ was administered orally on day 1. A 7-d washout time was designed between single-dose and multiple-dose pharmacokinetic studies. In the multiple-dose study, subjects received multiple doses of RLQ (8 g, t.i.d.) for seven consecutive days from day 8 to day 14 and a single dose of RLQ (8 g) on the morning of day 15. On days 1 and 15, blood samples (3 mL) were collected from the antecubital vein catheter before drug administration and at 0.08, 0.17, 0.33, 0.5, 0.75, 1, 1.5, 2, 3, 4, 6, 8, 12 and 24 h after dosing. Additional pre-dose samples were collected in the morning on days 12, 13 and 14. Urine samples were collected over a 12 h interval before dosing and at the following time intervals thereafter: 0–2, 2–5, 5–8, 8–12 and 12–24 h. All samples were stored at −80 °C until analysis.
All analytes were extracted from plasma and urine samples by simple protein precipitation extraction method using acetonitrile. Briefly, 5 µL of internal standard solution and 300 μL of acetonitrile were added to the spiked blank matrix (100 μL) and vortexed for 3 min and then centrifuged at 13,000 × g for 10 min. The supernatant was transferred and dried using a flow of nitrogen. The residue was re-dissolved in 100 µL of 10% methanol solution containing 0.1% formic acid. An aliquot of 5 µL solution was injected into the LC-MS/MS system for analysis.
The GA and PCA concentrations were determined using a validated LC-MS/MS method with some modifications (Ma et al. [2015]). The chromatographic separation was performed on an Acquity Ultra Performance LC instrument (Waters, Milford, MA) with a gradient programme in an ACQUITY UPLC BEH C18 column (2.1 mm × 100 mm, 1.7 μm). The gradient programme was performed with the mobile phase (0.3 mL/min) consisting of 0.1% formic acid aqueous solution (A) and acetonitrile (B) as follows: 97% A (0–8.5 min), 60% A (8.7–11 min), 10% A (11.5–13.5 min) and 97% A (14–15 min). The injection volume was 2 µL. The mass spectrometry analysis was performed on an AB Sciex Triple Quad 5500 MS (Framingham, MA) equipped with an ESI source. The quantitative analyses of GA, PCA and chloramphenicol were performed in a negative mode by multiple reaction monitoring (MRM) with the ion transitions of m/z 169.0→125.1, 153.1→109.0 and 321.1→152.1, respectively.
Pharmacokinetic parameters of GA and PCA were estimated with a non-compartmental method using Phoenix WinNonlin version 6.4 (Certara, Princeton, NJ). The peak plasma concentration (Cmax) and time to reach the peak plasma concentration (Tmax) were calculated from the actual plasma concentration data. The area under the plasma concentration-time curve from zero to the last measurable concentration (AUC0–t) was calculated via the linear trapezoidal rule. AUC0–∞ was calculated using the following formula: AUC0–∞ = AUC0–t + Ct/ke, where Ct is the last plasma concentration measured. The terminal elimination half-life (t1/2) was calculated as 0.693/ke, and the total clearance (CL/F) was calculated as dose/AUC0–∞. The accumulation index was calculated as AUCss/AUC0–t.

Where [3] appears, read: estimated, 14C-PAH 5 µM, MDCK-OAT1 cells.

Consider `O=C(O)c1ccc(O)c(O)c1` [PCA, protocatechuic acid], for which the “unchanged amount that survived the metabolism, % of the total intake” value in data set [1] (urinary excretion) is given as about 15.7%. For the same molecule, the “inhibitory effect on OAT1” value at OAT1 (GA 50–5000 μg/L, PCA 10–1000 μg/L) is “no significant inhibitory effect”. Besides, the mean urinary concentration in data set [2] (first 2 h after administration of RLQ 8 g) was about 150 µg/L. In data set [2] (single dose RLQ 8 g), the fraction unbound is about 0.042 and the “amount recovered in urine within 24 h” value came out at 0.046 ± 0.040 mg. For the same molecule, the dose excreted in data set [2] is about 5%.
`O=C(O)c1cc(O)c(O)c(O)c1` [GA, gallic acid]: the “concentration in rat kidney tissue” value in data set [1] is recorded as 1218 ng/g. For the same molecule, at OAT1 (setting [3]), the IC50 was 3.73 µM and the “IC50 (OAT1)” value is 0.6341 µg/mL (≈ 3.73 µM). In data set [2] (multiple dose RLQ 8 g), the fraction unbound came out at 0.107. In addition, in data set [2] (single dose RLQ 8 g), the fraction unbound is about 0.086 and the “amount recovered in urine within 24 h” value worked out at 2.48 ± 1.34 mg. In addition, the dose excreted in data set [2] was about 10%.

These data come from PMC8216263 (Pharmaceutical Biology, 2021).
